This note sets out measurements from BindingDB's records for doi:10.1021/jm00090a012 (National Institute of Diabetes and Digestive and Kidney …, 1992).

The structures appear in SMILES notation.

For assay [1], the target named is Sigma non-opioid intracellular receptor 1 (Cavia porcellus) (UniProt Q60492). The experiment in a line: Binding affinity against sigma receptor from guinea pig brain, using [3H](+)-pentazocine as radioligand.
Assay [2] can be described thus: Binding affinity against phencyclidine (PCP) receptor from guinea pig brain, using [3H]TCP as radioligand.
Assay [3] in a line: Binding affinity against sigma receptor from guinea pig brain, using [3H](+)-3-PPP as radioligand.
The nature of assay [4]: Binding affinity against sigma receptor from guinea pig brain, using [3H](+)-pentazocine as radioligand.

Sigma non-opioid intracellular receptor 1 (Cavia porcellus), sequence (Q60492 whole entry, looked up): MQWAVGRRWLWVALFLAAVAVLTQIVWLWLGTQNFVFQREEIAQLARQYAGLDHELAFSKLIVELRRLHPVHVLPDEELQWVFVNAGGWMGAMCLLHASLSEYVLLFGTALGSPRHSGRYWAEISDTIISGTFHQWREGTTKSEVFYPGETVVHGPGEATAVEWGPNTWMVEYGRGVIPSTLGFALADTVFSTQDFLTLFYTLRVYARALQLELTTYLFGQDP

Broadly, the Ki is a dissociation constant, usually derived from enzyme kinetics or from competition with a known ligand. Higher therefore signals a looser hold on the target. Compound `FCCCN1CCN(CCc2ccc(Cl)c(Cl)c2)CC1` came in with a Ki in assay [1] of 0.39 nM. `CCCCCN1CC[C@@]2(C)c3cc(O)ccc3CC1[C@H]2C` [(6R,11S)-6,11-Dimethyl-3-pentyl-1,2,3,4,5,6-hexahydro-2,6-methano-benzo[d]azocin-8-ol] displayed a Ki in assay [2] of 9040 nM. For the compound `Clc1ccc(CCN2CCN(CCCI)CC2)cc1Cl`, the Ki in assay [3] worked out at 1.3 nM; in assay [4], 1.2 nM. In the case of `FCCCCCN1CCN(CCc2ccc(Cl)c(Cl)c2)CC1`, the Ki in assay [3] was determined as 0.86 nM; in assay [4] it was 0.52 nM. Take `FCCCN(CCc1ccc(Cl)c(Cl)c1)CCN1CCCC1`: in assay [3], the Ki stood at 4.22 nM.
